Results from patent US20220339124A1 (CADILA HEALTHCARE LIMITED, priority 2019, published 2022).
Where a name gives a salt, the structure may show the parent alone.

Key:
[1] = humans, cited from earlier work
in vivo [2] = details: male, Wistar, rat, plasma
Method: A serial blood sampling was performed from each animal. The blood samples were collected at 0.00 (pre-dose), 0.08, 0.25, 0.5, 1, 2, 4, 6, 8, 24 hrs. […] Pharmacokinetic parameters were calculated using the non-compartmental analysis (NCA) module of Phoenix-WinNonlin® software version 6.4.

[3] = intranasal, 0.05, 0.1 and 0.2 mg/kg, rats
[4] = endocyclic and exocyclic double bonds to epoxides; tertiary amine to N-oxide; cited from earlier work
in vivo [5] = details: male, Wistar, rat, inhaled or intranasal, mean ± SD, N=4; for half-life: T½
in vivo [6] = experiment: in vivo
Method: A serial blood sampling was performed from each animal. The blood samples were collected at 0.00 (pre-dose), 0.083, 0.25, 0.5, 1, 2, 4, 6, 8, 24 hrs. […] Pharmacokinetic parameters were calculated using the non-compartmental analysis (NCA) module of Phoenix-WinNonlin® software version 6.4.

[7] = inhaled or intranasal, 0.02 mg/kg
[8] = in vivo, planned 0.2 mg/kg (actual 0.14 mg/kg)
[9] = plasma, planned 0.05 mg/kg (actual 0.03 mg/kg)
[10] = plasma, planned 0.1 mg/kg (actual 0.07 mg/kg)
[11] = New Zealand white, rabbit, plasma, inhaled or intranasal, 0.011 mg/kg
[12] = male, Wistar, rat, inhaled or intranasal, 0.4 mg/kg
[13] = male, Wistar, rat, po, 1.05 mg/kg
[14] = male, beagle, dog, plasma, inhaled or intranasal, 0.26 mg/kg
[15] = male, beagle, dog, plasma, po, 0.51 mg/kg

In the case of `CN(C)CCC=C1c2ccccc2C=Cc2ccccc21` [Cyclobenzaprine hydrochloride, cyclobenzaprine hydrochloride], the “dose excreted in the urine as unchanged drug” value ([1]; study with 14C-labelled drug) is listed as “about 1%”.

`CN(C)CCC=C1c2ccccc2C=Cc2ccccc21` [cyclobenzaprine, 3-(5H-Dibenzo[a,d]cyclohepten-5-ylidene)-N,N-dimethyl-1-propanamine] gave an AUC(0-inf) (in vivo [2]; [7]) of 2.59 ng·h/mL, an AUC(0-t) (in vivo [2]; [7]) of 2.32 ng·h/mL and a Cmax (in vivo [2]; [7]) of 2.83 ng/mL. The Tmax (in vivo [2]; [7]) was 0.083 h, the half-life (in vivo [2]; [7]) was 1.07 h and the AUC(0-inf) (in vivo [2]; po, 0.885 mg/kg) was 3.26 ng·h/mL. The AUC(0-t) (in vivo [2]; po, 0.885 mg/kg) was 2.54 ng·h/mL, the Cmax (in vivo [2]; po, 0.885 mg/kg) was 1.2 ng/mL and the Tmax (in vivo [2]; po, 0.885 mg/kg) was 1 h. For the same compound, the half-life (in vivo [2]; po, 0.885 mg/kg) was 2.61 h, the Bioavailability versus dose [3] was “Dose dependent linear bioavailability” and the stability towards oxidation [4] was “very unstable”. It also gave an AUC(0-t) (in vivo [5]; [8]) of 22.4 ± 10.1 ng·h/mL, a half-life (in vivo [5]; in vivo, planned 0.05 mg/kg (actual 0.03 mg/kg)) of 1.9 ± 0.3 h and a half-life (in vivo [5]; in vivo, planned 0.1 mg/kg (actual 0.07 mg/kg)) of 1.6 ± 0.2 h. It also gave a half-life (in vivo [5]; [8]) of 2.2 ± 0.3 h, an AUC(0-t) (in vivo [5]; [9]) of 4.8 ± 1.4 ng·h/mL and an AUC(0-t) (in vivo [5]; [10]) of 10.6 ± 3 ng·h/mL. The Cmax (in vivo [5]; [9]) was 4.6 ± 1.7 ng/mL, the Cmax (in vivo [5]; [10]) was 16.4 ± 11.6 ng/mL and the Cmax (in vivo [5]; plasma, planned 0.2 mg/kg (actual 0.14 mg/kg)) was 27.6 ± 26.4 ng/mL. For the same compound, the plasma clearance [1] was 0.7 L/min, the effective half-life ([1]; range 8-37 hours, n=18) was 18 h and the AUC(0-inf) (in vivo [6]; [11]) was 0.92 ng·h/mL. It also gave an AUC(0-t) (in vivo [6]; [11]) of 0.52 ng·h/mL, a Cmax (in vivo [6]; [11]) of 0.56 ng/mL and an MRT inf (in vivo [6]; [11]) of 2.43 h. The MRT last (in vivo [6]; [11]) was 0.87 h, the Vd/F (in vivo [6]; [11]) was 28.6 L/kg and the “Cl—F—pred” value (in vivo [6]; intranasal, 0.011 mg/kg) was 199.56 mL/min/kg. The “HL—Lambda—z” value (in vivo [6]; intranasal, 0.011 mg/kg) was 1.65 h, the “DNAUC (AUC normalized at 1 mg/kg dose)” value (in vivo [6]; intranasal, 0.26 mg/kg) was 385.92 and the “DNAUC (AUC normalized at 1 mg/kg dose)” value (in vivo [6]; male, Wistar, rat, inhaled or intranasal) was 130.85. It also gave an AUC(0-inf) (in vivo [6]; [12]) of 52.3 ± 12.8 ng·h/mL, an AUC(0-t) (in vivo [6]; [12]) of 51.2 ± 12.8 ng·h/mL and a Cmax (in vivo [6]; [12]) of 31.3 ± 10.1 ng/mL. For the same compound, the half-life (in vivo [6]; [12]) was 2.79 ± 2.35 h, the “DNAUC (AUC normalized at 1 mg/kg dose)” value (in vivo [6]; male, Wistar, rat, po) was 3.11 and the AUC(0-inf) (in vivo [6]; [13]) was 3.27 ± 0.42 ng·h/mL. The AUC(0-t) (in vivo [6]; [13]) was 2.98 ± 0.42 ng·h/mL, the Cmax (in vivo [6]; [13]) was 1.74 ± 0.95 ng/mL and the half-life (in vivo [6]; [13]) was 1.43 ± 0.33 h. It also gave an AUC(0-inf) (in vivo [6]; [14]) of 103 ± 26.2 ng·h/mL, an AUC(0-t) (in vivo [6]; [14]) of 100 ± 25.9 ng·h/mL and a Cmax (in vivo [6]; [14]) of 62.3 ± 13.8 ng/mL. For the same compound, the Tmax (in vivo [6]; [14]) was 0.083 h, the half-life (in vivo [6]; [14]) was 6.09 ± 2.27 h and the AUC(0-inf) (in vivo [6]; [15]) was 7.58 ± 5.64 ng·h/mL. The AUC(0-t) (in vivo [6]; [15]) was 7.03 ± 5.65 ng·h/mL, the Cmax (in vivo [6]; [15]) was 1.61 ± 1.21 ng/mL and the Tmax (in vivo [6]; [15]) was 1.5 h. For the same compound, the half-life (in vivo [6]; [15]) was 2.03 ± 0.64 h, the Plasma concentrations (in vivo [6]; oral, 0.442 mg/kg, n=4, rabbits) was “below the limit of quantification” and the “DNAUC (AUC normalized at 1 mg/kg dose)” value (in vivo [6]; oral, 0.51 mg/kg) was 13.52. For the same compound, the Tmax (in vivo [6]; rat, inhaled or intranasal, 0.4 mg/kg) was 0.083 h and the Tmax (in vivo [6]; rat, po, 1.05 mg/kg) was 0.5 (0.25-1.0) Hour.
